Measurements: patent US20230017786A1, “DEXTR[…] A DISEASE-MODIFYING TREATMENT FOR NEUROPSYCHIATRIC DISORDERS AND DISEASES” (priority 2020, published 2023)

Columns and labels:
Assay type in all cases: cell-based
[1] = biological target: T1, recombinant human NMDAR GluN1 plus GluN2A (Homo sapiens, UniProt Q05586+Q12879); experiment: FLIPR calcium assay, gentamicin as PAM (Example 5 Part I), GluN2A cell line; conditions: 10 μM test item; dextromethadone in presence and absence of 10 μM gentamicin
T1 construct: expressed in transfected cells; host or cells: CHO
From the text: (§1) A FLIPR calcium assay was used to profile gentamicin using stable cell lines expressing diheteromeric recombinant human NMDARs, containing GluN1 plus one amongst GluN2A, GluN2B, GluN2C or GluN2D subunit.

[2] = biological target: T2, human NMDA receptor GluN1-GluN2A (Homo sapiens, UniProt Q05586+Q12879); experiment: FLIPR calcium assay, quinolinic acid, gentamicin, dextromethadone (Example 5 Part II), GluN1-GluN2A-CHO; set-up: calcium response (mean±SEM): unit not given here
T2 construct: expressed in transfected cells; host or cells: CHO
Method: (§2) Quinolinic acid or gentamicin CRCs were also produced, in presence of 10 μM glycine.
(§3) Test items were evaluated in FLIPR for their ability to modulate, alone or in combination, calcium entry in presence of […], using four CHO cell lines expressing diheteromeric human NMDA receptor (NMDAR): GluN-/GluN2A-CHO, GluN1-GluN2B-CHO, GluN1-GluN2C-CHO, GluN1-GluN2D-CHO.
(§4) The first aim of the study was to evaluate quinolinic acid or gentamicin CRC effect in the presence of 10 μM glycine.
(§5) FLIPR determination of intracellular calcium level was used as a read-out for NMDAR activation.
(§6) 400× compound plate was stored at −20° C. till FLIPR experimental day.
(§7) A 4× compound plate was generated from 400× compound plate by addition of up to 30 μl/well of compound buffer on FLIPR experimental day.
(§8) A FLIPR system was used to monitor intracellular calcium level in NMDAR cell lines, pre-loaded for 1 hour with Fluo-4, and then washed with assay buffer.
(§9) Y=Bottom+(Top−Bottom)/(1+10^((LogEC50−X)*HillSlope))
(§10) Test item CRC data were plotted by Prism 8 GraphPad software, in the different experimental conditions. And, column analysis, performed by Prism 8 GraphPad software, was one way ANOVA followed by Tukey's multiple comparisons test, with a single pooled variance.

[3] = biological target: T3, recombinant human NMDAR GluN1 plus GluN2B (Homo sapiens, UniProt Q05586+Q13224); experiment: FLIPR calcium assay, gentamicin as PAM (Example 5 Part I), GluN2B cell line; conditions: 10 μM test item; dextromethadone in presence and absence of 10 μM gentamicin
T3 construct: expressed in transfected cells; host or cells: CHO
From the text: as §1

[4] = biological target: T4, human NMDA receptor GluN1-GluN2D (Homo sapiens, UniProt O15399+Q05586); experiment: FLIPR calcium assay, quinolinic acid, gentamicin, dextromethadone (Example 5 Part II), GluN1-GluN2D-CHO
T4 construct: expressed in transfected cells; host or cells: CHO
Method: as §2, §3, §4, §5, §6, §7, §8, §9, §10

[5] = biological target: T5, human NMDA receptor GluN1-GluN2C (Homo sapiens, UniProt Q05586+Q14957); experiment: FLIPR calcium assay, quinolinic acid, gentamicin, dextromethadone (Example 5 Part II), GluN1-GluN2C-CHO
T5 construct: expressed in transfected cells; host or cells: CHO
Method: as §2, §3, §4, §5, §6, §7, §8, §9, §10

[6] = biological target: T6, recombinant human NMDAR GluN1 plus GluN2C (Homo sapiens, UniProt Q05586+Q14957); experiment: FLIPR calcium assay, gentamicin as PAM (Example 5 Part I), GluN2C cell line; conditions: 10 μM test item; dextromethadone in presence and absence of 10 μM gentamicin
T6 construct: expressed in transfected cells; host or cells: CHO
From the text: as §1

[7] = biological target: T7, human NMDA receptor GluN1-GluN2B (Homo sapiens, UniProt Q05586+Q13224); experiment: FLIPR calcium assay, quinolinic acid, gentamicin, dextromethadone (Example 5 Part II), GluN1-GluN2B-CHO
T7 construct: expressed in transfected cells; host or cells: CHO
Method: as §2, §3, §4, §5, §6, §7, §8, §9, §10

[8] = biological target: T8, recombinant human NMDAR GluN1 plus GluN2D (Homo sapiens, UniProt O15399+Q05586); experiment: FLIPR calcium assay, gentamicin as PAM (Example 5 Part I), GluN2D cell line; conditions: 10 μM test item; dextromethadone in presence and absence of 10 μM gentamicin
T8 construct: expressed in transfected cells; host or cells: CHO
From the text: as §1

[9] = CRC in presence of 10 μM glycine
[10] = CRC in presence of 10 μM glycine, no glutamate
[11] = gentamicin CRC, max 100, 10 μM glycine

T8 sequence (O15399 28-1336, other chains not shown): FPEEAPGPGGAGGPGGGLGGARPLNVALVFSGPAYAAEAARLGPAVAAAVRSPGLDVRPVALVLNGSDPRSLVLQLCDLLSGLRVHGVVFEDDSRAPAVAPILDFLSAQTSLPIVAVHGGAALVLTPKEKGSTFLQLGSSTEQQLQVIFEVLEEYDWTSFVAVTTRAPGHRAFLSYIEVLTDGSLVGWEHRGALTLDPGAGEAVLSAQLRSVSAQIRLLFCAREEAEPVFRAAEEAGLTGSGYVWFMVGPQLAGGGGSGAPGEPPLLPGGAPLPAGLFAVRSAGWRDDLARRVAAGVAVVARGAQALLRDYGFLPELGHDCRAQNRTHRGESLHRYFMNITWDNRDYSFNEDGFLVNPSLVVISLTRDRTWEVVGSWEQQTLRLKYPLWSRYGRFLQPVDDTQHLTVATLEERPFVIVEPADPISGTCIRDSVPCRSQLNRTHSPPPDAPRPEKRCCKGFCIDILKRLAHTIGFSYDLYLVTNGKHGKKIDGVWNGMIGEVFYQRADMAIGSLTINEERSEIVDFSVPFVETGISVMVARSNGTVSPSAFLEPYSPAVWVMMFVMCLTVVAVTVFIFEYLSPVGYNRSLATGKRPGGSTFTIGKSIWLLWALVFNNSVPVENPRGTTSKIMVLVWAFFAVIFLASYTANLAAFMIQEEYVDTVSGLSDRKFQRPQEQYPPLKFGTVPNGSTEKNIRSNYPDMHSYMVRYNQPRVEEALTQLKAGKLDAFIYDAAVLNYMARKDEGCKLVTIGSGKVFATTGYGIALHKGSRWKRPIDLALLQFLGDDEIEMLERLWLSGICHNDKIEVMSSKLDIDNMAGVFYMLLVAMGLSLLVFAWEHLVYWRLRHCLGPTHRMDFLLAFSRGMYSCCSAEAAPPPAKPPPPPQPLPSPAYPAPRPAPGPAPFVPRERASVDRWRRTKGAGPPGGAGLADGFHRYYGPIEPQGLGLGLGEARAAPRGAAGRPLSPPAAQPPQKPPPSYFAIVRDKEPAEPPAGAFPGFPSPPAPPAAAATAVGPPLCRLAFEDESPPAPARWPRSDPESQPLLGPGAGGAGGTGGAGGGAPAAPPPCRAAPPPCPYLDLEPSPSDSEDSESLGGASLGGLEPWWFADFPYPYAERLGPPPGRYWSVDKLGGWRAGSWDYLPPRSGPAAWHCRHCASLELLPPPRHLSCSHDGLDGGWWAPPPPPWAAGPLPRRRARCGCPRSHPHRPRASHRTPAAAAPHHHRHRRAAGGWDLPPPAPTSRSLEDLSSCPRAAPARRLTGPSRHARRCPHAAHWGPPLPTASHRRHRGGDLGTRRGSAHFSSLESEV
T4 sequence (O15399 28-1336, other chains not shown): as above
T2 sequence (Q12879 23-1464, other chains not shown): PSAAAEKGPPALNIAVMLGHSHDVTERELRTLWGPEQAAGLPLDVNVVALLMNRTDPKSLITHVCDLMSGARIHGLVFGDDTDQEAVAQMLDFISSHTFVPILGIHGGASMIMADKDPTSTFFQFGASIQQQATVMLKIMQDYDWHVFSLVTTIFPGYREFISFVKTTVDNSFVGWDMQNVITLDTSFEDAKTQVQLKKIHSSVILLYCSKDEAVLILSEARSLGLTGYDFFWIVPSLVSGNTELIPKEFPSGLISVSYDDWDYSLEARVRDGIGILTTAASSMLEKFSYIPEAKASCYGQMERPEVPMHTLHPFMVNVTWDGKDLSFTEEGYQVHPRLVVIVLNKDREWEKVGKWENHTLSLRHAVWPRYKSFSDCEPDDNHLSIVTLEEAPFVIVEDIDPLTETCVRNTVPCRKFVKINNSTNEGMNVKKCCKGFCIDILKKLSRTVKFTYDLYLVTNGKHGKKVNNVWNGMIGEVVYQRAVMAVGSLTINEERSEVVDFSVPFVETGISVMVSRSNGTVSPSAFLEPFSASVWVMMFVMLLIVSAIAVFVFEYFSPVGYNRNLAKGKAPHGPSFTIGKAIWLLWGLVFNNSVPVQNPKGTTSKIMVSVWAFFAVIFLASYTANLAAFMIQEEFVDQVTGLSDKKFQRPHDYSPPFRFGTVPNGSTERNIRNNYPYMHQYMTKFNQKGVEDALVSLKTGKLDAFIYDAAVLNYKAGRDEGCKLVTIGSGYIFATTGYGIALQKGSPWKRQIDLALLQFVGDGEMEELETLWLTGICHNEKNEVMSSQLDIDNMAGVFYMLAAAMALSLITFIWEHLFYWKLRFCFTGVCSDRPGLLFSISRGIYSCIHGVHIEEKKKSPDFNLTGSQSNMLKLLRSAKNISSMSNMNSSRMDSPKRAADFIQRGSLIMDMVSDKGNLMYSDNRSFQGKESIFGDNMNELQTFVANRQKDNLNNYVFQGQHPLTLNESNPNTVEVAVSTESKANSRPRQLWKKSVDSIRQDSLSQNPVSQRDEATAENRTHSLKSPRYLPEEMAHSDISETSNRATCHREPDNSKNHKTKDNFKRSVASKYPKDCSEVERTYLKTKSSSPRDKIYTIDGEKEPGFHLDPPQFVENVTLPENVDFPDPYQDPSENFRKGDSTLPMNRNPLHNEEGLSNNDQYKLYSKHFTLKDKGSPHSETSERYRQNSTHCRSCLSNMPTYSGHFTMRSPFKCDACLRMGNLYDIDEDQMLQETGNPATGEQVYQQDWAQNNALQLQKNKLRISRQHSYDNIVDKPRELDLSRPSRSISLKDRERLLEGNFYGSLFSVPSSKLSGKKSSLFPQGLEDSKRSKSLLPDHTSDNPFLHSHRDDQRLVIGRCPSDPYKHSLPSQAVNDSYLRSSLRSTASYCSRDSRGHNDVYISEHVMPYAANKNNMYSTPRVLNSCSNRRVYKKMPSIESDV
T1 sequence (Q12879 23-1464, other chains not shown): as above

Gentamicin sulfate
calcium entry induced by 0.04 μM L-glutamate [1]: significantly increased | calcium entry induced by 0.2 μM L-glutamate [1]: significantly increased | calcium entry induced by 10 μM L-glutamate [1]: significantly decreased | EC50 ([2]; 10 μM glycine): >100 µg/mL | % effect on calcium entry, 1000 μM quinolinic acid plus gentamicin ([2]; 10 μg/ml gentamicin, 10 μM glycine): 47±1.1% | calcium response (mean±SEM) ([2]; 1000 μM QA + 10 μg/ml GENT, 10 μM glycine, GluN2A, n=42): 47 ± 1.1 | Minimal response (%) [2, 9]: −3.3% | pEC50 [2, 10]: <4 | Response at max conc (%) [2, 11]: 0.1% | calcium entry induced by 0.04 μM L-glutamate [3]: significantly increased | calcium entry induced by 0.2 μM L-glutamate [3]: significantly increased | calcium entry induced by 10 μM L-glutamate [3]: did not modify | EC50 ([4]; 10 μM glycine): >100 µg/mL | calcium response (mean±SEM) ([4]; 1000 μM QA + 10 μg/ml GENT, 10 μM glycine, GluN2D, n=42): 53 ± 1.7 | Minimal response (%) [4, 9]: −3.2% | pEC50 [4, 10]: <4 | Response at max conc (%) [4, 11]: 1.0% | EC50 ([5]; 10 μM glycine): >100 µg/mL | calcium response (mean±SEM) ([5]; 1000 μM QA + 10 μg/ml GENT, 10 μM glycine, GluN2C, n=42): 5.6 ± 0.4 | Minimal response (%) [5, 9]: −8.2% | pEC50 [5, 10]: <4 | Response at max conc (%) [5, 11]: 0.03% | calcium entry induced by 0.04 μM L-glutamate [6]: significantly increased | calcium entry induced by 10 μM L-glutamate [6]: significantly decreased | EC50 ([7]; 10 μM glycine): >100 µg/mL | calcium response (mean±SEM) ([7]; 1000 μM QA + 10 μg/ml GENT, 10 μM glycine, GluN2B, n=42): 37 ± 1.4 | Minimal response (%) [7, 9]: −3.7% | pEC50 [7, 10]: <4 | Response at max conc (%) [7, 11]: 0.7% | calcium entry induced by 0.04 μM L-glutamate [8]: significantly increased | calcium entry induced by 0.2 μM L-glutamate [8]: decreased calcium entry | calcium entry induced by 10 μM L-glutamate [8]: did not modify
